# Reference: patent US9326506B2, “Preparation method, agricultural composition and applications of natural brassinolide analogs” (CHENGDU NEWSUN CROPSCIENCE CO., LTD, priority 2012, dated 2016)
# Tested on: rice
# Test: Low temperature assay on rice seedlings
# Assay type: in vivo
# Protocol: According to a low temperature assay, we measured parameters including plant height, number of leaf, area of leaf, number of tiller, weight of root at low temperature to completely determine effects of the natural brassinolide analogues on the resistance to low temperature of a plant.
# The natural brassinolide analogues, BR1, BR2, BR3, BR4, BR5 and BR6, used herein, were those prepared by the method of Example 1. Respectively the analogues were dissolved into 95% (V/V) ethanol solution, and then diluted with pure water to 1 mg/L, 0.1 mg/L, 0.01 mg/L, 0.001 mg/L and 0.0001 mg/L. In addition, pure water was used as a control.
# After rice seeds were disinfected by using 5% sodium hypochlorite solution treatment, they were rinsed with distilled water until their pH>7, placed into a petri dish in a dark incubator, and cultured by using water at 30° C.±2° C. for 9 days. Then respectively the nine-day-old etiolated seedlings of rice were immersed in the above solutions containing different concentrations of the natural brassinolide analogues or pure water, and cultured at the temperature of 1° C., 2° C., 3° C., 4° C. and 5° C. for 24 hr. The parameters including plant height, area of leaf and weight of root after 3, 6, 9 and 12 days and number of leaf and number of tiller after 12 days were measured.
smiles,measurement,setting,value
CC(C)[C@H](C)[C@@H](O)[C@H](O)[C@@H](C)[C@H]1CCC2C3COC(=O)C4C[C@H](O)[C@H](O)C[C@]4(C)C3CC[C@@]21C (stereo partly shown) [BR1],Area of leaf,"0.001 mg/l, 2 °C, 6 days",11.8 cm^2
same,Height,"0.001 mg/l, 2 °C, 6 days",7.1 cm
same,Weight of root,"0.001 mg/l, 2 °C, 6 days",3.0 g
same,Area of leaf,"0.001 mg/l, 2 °C, 9 days",12.6 cm^2
same,Height,"0.001 mg/l, 2 °C, 9 days",7.2 cm
same,Weight of root,"0.001 mg/l, 2 °C, 9 days",3.2 g
same,Area of leaf,"0.001 mg/l, 2 °C, 12 days",13.1 cm^2
same,Height,"0.001 mg/l, 2 °C, 12 days",7.3 cm
same,Number of leaf,"0.001 mg/l, 2 °C, 12 days",3
same,Number of tiller,"0.001 mg/l, 2 °C, 12 days",3
same,Weight of root,"0.001 mg/l, 2 °C, 12 days",3.9 g
same,Area of leaf,"0.001 mg/l, 3 °C, 3 days",10.4 cm^2
same,Height,"0.001 mg/l, 3 °C, 3 days",7 cm
same,Weight of root,"0.001 mg/l, 3 °C, 3 days",2.5 g
same,Area of leaf,"0.001 mg/l, 3 °C, 6 days",12 cm^2
same,Height,"0.001 mg/l, 3 °C, 6 days",7.1 cm
same,Weight of root,"0.001 mg/l, 3 °C, 6 days",2.6 g
same,Area of leaf,"0.001 mg/l, 3 °C, 9 days",12.6 cm^2
same,Height,"0.001 mg/l, 3 °C, 9 days",7.4 cm
same,Weight of root,"0.001 mg/l, 3 °C, 9 days",2.9 g
same,Area of leaf,"0.001 mg/l, 3 °C, 12 days",13.2 cm^2
same,Height,"0.001 mg/l, 3 °C, 12 days",7.3 cm
same,Number of leaf,"0.001 mg/l, 3 °C, 12 days",3
same,Number of tiller,"0.001 mg/l, 3 °C, 12 days",2
same,Weight of root,"0.001 mg/l, 3 °C, 12 days",2.9 g
same,Area of leaf,"0.001 mg/l, 4 °C, 3 days",10.6 cm^2
same,Height,"0.001 mg/l, 4 °C, 3 days",7.1 cm
same,Weight of root,"0.001 mg/l, 4 °C, 3 days",2.5 g
same,Area of leaf,"0.001 mg/l, 4 °C, 6 days",12.4 cm^2
same,Height,"0.001 mg/l, 4 °C, 6 days",7.3 cm
same,Weight of root,"0.001 mg/l, 4 °C, 6 days",2.6 g
same,Area of leaf,"0.001 mg/l, 4 °C, 9 days",13.1 cm^2
same,Height,"0.001 mg/l, 4 °C, 9 days",7.5 cm
same,Weight of root,"0.001 mg/l, 4 °C, 9 days",2.9 g
same,Area of leaf,"0.001 mg/l, 4 °C, 12 days",13.5 cm^2
same,Height,"0.001 mg/l, 4 °C, 12 days",7.7 cm
same,Number of leaf,"0.001 mg/l, 4 °C, 12 days",3
same,Number of tiller,"0.001 mg/l, 4 °C, 12 days",2
same,Weight of root,"0.001 mg/l, 4 °C, 12 days",2.9 g
same,Area of leaf,"0.001 mg/l, 5 °C, 3 days",10.7 cm^2
same,Height,"0.001 mg/l, 5 °C, 3 days",7.5 cm
same,Weight of root,"0.001 mg/l, 5 °C, 3 days",2.8 g
same,Area of leaf,"0.001 mg/l, 5 °C, 6 days",14.6 cm^2
same,Height,"0.001 mg/l, 5 °C, 6 days",7.7 cm
same,Weight of root,"0.001 mg/l, 5 °C, 6 days",2.9 g
same,Area of leaf,"0.001 mg/l, 5 °C, 9 days",16.4 cm^2
same,Height,"0.001 mg/l, 5 °C, 9 days",7.9 cm
same,Weight of root,"0.001 mg/l, 5 °C, 9 days",3.0 g
same,Area of leaf,"0.001 mg/l, 5 °C, 12 days",17 cm^2
same,Height,"0.001 mg/l, 5 °C, 12 days",8.2 cm
same,Number of leaf,"0.001 mg/l, 5 °C, 12 days",3
same,Number of tiller,"0.001 mg/l, 5 °C, 12 days",3
same,Weight of root,"0.001 mg/l, 5 °C, 12 days",3.7 g
same,Area of leaf,"0.01 mg/l, 1 °C, 3 days",10.1 cm^2
same,Height,"0.01 mg/l, 1 °C, 3 days",6.9 cm
same,Weight of root,"0.01 mg/l, 1 °C, 3 days",2.8 g
same,Area of leaf,"0.01 mg/l, 1 °C, 6 days",11.9 cm^2
same,Height,"0.01 mg/l, 1 °C, 6 days",7.2 cm
same,Weight of root,"0.01 mg/l, 1 °C, 6 days",3.0 g
same,Area of leaf,"0.01 mg/l, 1 °C, 9 days",12.9 cm^2
same,Height,"0.01 mg/l, 1 °C, 9 days",7.3 cm
same,Weight of root,"0.01 mg/l, 1 °C, 9 days",3.4 g
same,Area of leaf,"0.01 mg/l, 1 °C, 12 days",13.6 cm^2
same,Height,"0.01 mg/l, 1 °C, 12 days",7.4 cm
same,Number of leaf,"0.01 mg/l, 1 °C, 12 days",3
same,Number of tiller,"0.01 mg/l, 1 °C, 12 days",3
same,Weight of root,"0.01 mg/l, 1 °C, 12 days",3.9 g
same,Area of leaf,"0.01 mg/l, 2 °C, 3 days",10.3 cm^2
same,Height,"0.01 mg/l, 2 °C, 3 days",6.9 cm
same,Weight of root,"0.01 mg/l, 2 °C, 3 days",2.8 g
same,Area of leaf,"0.01 mg/l, 2 °C, 6 days",11.8 cm^2
same,Height,"0.01 mg/l, 2 °C, 6 days",7.2 cm
same,Weight of root,"0.01 mg/l, 2 °C, 6 days",3.0 g
same,Area of leaf,"0.01 mg/l, 2 °C, 9 days",12.8 cm^2
same,Height,"0.01 mg/l, 2 °C, 9 days",7.3 cm
same,Weight of root,"0.01 mg/l, 2 °C, 9 days",3.1 g
same,Area of leaf,"0.01 mg/l, 2 °C, 12 days",13.4 cm^2
same,Height,"0.01 mg/l, 2 °C, 12 days",7.5 cm
same,Number of leaf,"0.01 mg/l, 2 °C, 12 days",3
same,Number of tiller,"0.01 mg/l, 2 °C, 12 days",3
same,Weight of root,"0.01 mg/l, 2 °C, 12 days",3.2 g
same,Area of leaf,"0.01 mg/l, 3 °C, 3 days",10.4 cm^2
same,Height,"0.01 mg/l, 3 °C, 3 days",7 cm
same,Weight of root,"0.01 mg/l, 3 °C, 3 days",2.5 g
same,Area of leaf,"0.01 mg/l, 3 °C, 6 days",12 cm^2
same,Height,"0.01 mg/l, 3 °C, 6 days",7.2 cm
same,Weight of root,"0.01 mg/l, 3 °C, 6 days",2.6 g
same,Area of leaf,"0.01 mg/l, 3 °C, 9 days",12.6 cm^2
